Source: ChEMBL document CHEMBL2331197, “Alstoniaphyllines A-C, unusual nitrogenous derivatives from the bark of Alstonia macrophylla” (J Nat Prod, 2013)
Activity calls are given as the source filed them. The calls are words filed in the database; no cut-off is given here.

What was measured:
KB = assay: Cytotoxicity against human KB cells by resazurin assay; assay type: functional, cell-based
Plasmodium falciparum = assay: Antimalarial activity against multidrug-resistant Plasmodium falciparum K1 by [3H]-hypoxanthine incorporation assay; assay type: functional, organism-based

| Structure (SMILES) | IC50 (KB) [µM] | IC50 (Plasmodium falciparum) [µM] | Activity (Plasmodium falciparum) |
| --- | --- | --- | --- |
| C[C@@H]1OC[C@@H]2[C@@H](C[C@H]3C4=Nc5ccccc5C4=C[C@@H]2[N+]3(C)[O-])[C@@H]1CO (stereo not given in full) [ALSTONIAPHYLLINE C] | > 100 |  |  |
| COc1cccc2c1C(=O)c1c(O)c3c(c(O)c1C2=O)C[C@@](O)(C(=O)CO)C[C@@H]3O[C@H]1C[C@H](N)[C@H](O)[C@H](C)O1 [DOXORUBICIN] | 0.55 |  |  |
| CC(=O)C1=COC[C@H]2[C@@H]3C[C@@]4(C(=O)N(C)c5ccccc54)[C@H](C[C@@H]12)N3 [ALSTONAL] | > 100 | 7.6 |  |
| C[C@@H]1OC[C@@H]2[C@@H](C[C@H]3c4c(c5ccccc5n4C)C[C@@H]2N3C)[C@H]1CO [MACROCARPINE B] | > 100 |  |  |
| CC(=O)C1=COC[C@@H]2[C@H]1C[C@H]1[C@H](O)C[C@@H]2N1C [ANGUSTIMALINE] | > 100 |  |  |
| Cc1c2ccncc2c(C)c2c1[nH]c1ccccc12 [ELLIPTECINE] | 4.87 |  |  |
| CC(=O)C1=COC[C@@H]2[C@H]1C[C@H]1C(=O)C[C@@H]2N1C [ALSTONIAPHYLLINE A] | > 100 |  |  |
| C[C@@H]1OC[C@@H]2[C@@H](C[C@H]3c4c(c5ccccc5n4C)C[C@@H]2N3C)[C@@H]1C=O [Talcarpine] | > 100 |  |  |
| C[C@@H]1OC[C@@H]2[C@@H](C[C@H]3C(=O)C[C@@H]2N3C)[C@@H]1CO [ALSTONIAPHYLLINE B] | > 100 |  |  |
| CC1=C(C=O)[C@@H]2C[C@H]3c4c(c5ccccc5n4C)C[C@@H]([C@@H]2CO1)N3C [ALSTONERINAL] | > 100 |  |  |
| COc1ccc2c(c1)N(C)C(=O)[C@@]21C[C@@H]2N[C@H]1C[C@H]1C(C(C)=O)=COC[C@@H]21 | > 100 |  | Active |
| COc1ccc2c3c(n(C)c2c1)[C@@H]1C[C@H]2C(C=O)=C(C)OC[C@H]2[C@H](C3)N1C [ALSTOPHYLLAL] | > 100 |  |  |
| C/C=C1/CN2CC[C@@]34c5cc(OC)ccc5N(C)[C@H]3[C@@H]2C[C@H]1[C@@H]4C(=O)OC | > 100 |  |  |
